Measured values reported in patent US11589603B2, “Powdered nutritional product containing branched-chain amino acids and a sugar alcohol” (Abbott Laboratories, priority 2015, dated 2023).

Experiments:
[1] = Example 3: aqueous dissolution of powdered branched-chain amino acid blend (first material) with varying myo-inositol, LC/UV of filtrate; format: physicochemical; settings: for Dissolved amino acid (g per 16 oz.): 7.00 g BCAA blend, water 21° C., 400 rpm
Description: Example 3 evaluates the effect that varying the myo-inositol concentration has on the aqueous dissolution of branched-chain amino acids. Two branched-chain amino acid materials were tested. The first material tested was 7.00 grams of a powdered branched-chain amino acid blend comprising 50 wt. % leucine, 25 wt. % isoleucine, and 25 wt. % valine. The second material tested was 3.5 grams of powdered leucine. Each material was tested with varying levels of powdered myo-inositol, expressed as a percentage of 17.6 grams (e.g., a serving of powdered nutritional product). For example, 1% myo-inositol is 0.176 grams, 2% myo-inositol is 0.352 grams, and so forth. The branched-chain amino acid material and the specified amount of myo-inositol were added to 16 fluid ounces of Milli-Q Plus water at 21° C. and stirred at 400 rpm. After 30 seconds and 60 seconds of stirring, an aliquot was obtained and filtered through a 0.45 μm PTFE membrane (Pall Life Sciences, Acrodisc CR 25, P/N 4501), and the filtrate of the first material was tested for valine, isoleucine, and leucine using the LC/UV method described below, while the filtrate of the second material was tested for leucine using the same LC/UV method. The test results for the first material tested are shown in Table 3, while the test results for the second material tested are shown in Table 4.
(§1) The LC/UV system used to perform the tests comprised the following: 1) Column: YMC ODS-AQ, 4.6 x 250 mm, 5 μm, Waters P/N AQ12S052546WT; 2) Mobile Phase: Milli-Q Plus water; 3) Flow Rate: 0.4 mL/minute; 4) Temperature: 40° C.; 5) Detection: UV at 192 nm; 6) Injection: 2 μL of filtrate; and 7) Run Time: 20 minutes.

[2] = Example 4: aqueous dissolution of branched-chain amino acids in a powdered nutritional product with varying myo-inositol, LC/UV of filtrate; format: physicochemical; settings: 17.6 g powdered nutritional product, water 21° C., 400 rpm
Description: as §1
Example 4 evaluates the effect that myo-inositol concentration has on the aqueous dissolution of branched-chain amino acids (valine, isoleucine, and leucine) in a powdered nutritional product. One serving (17.6 grams) of the powdered nutritional product contains 7.00 grams of a branched-chain amino acid blend comprising 50 wt. % leucine, 25 wt. % isoleucine, and 25 wt. % valine. A serving of the powdered nutritional product with a specified amount of myo-inositol was added to 16 fluid ounces of Milli-Q Plus water at 21° C. and stirred at 400 rpm. At each specified time point, an aliquot was obtained and filtered through a 0.45 μm PTFE membrane (Pall Life Sciences, Acrodisc CR 25, P/N 4501), and the filtrate was tested for valine, isoleucine, and leucine using the LC/UV method as described in Example 3.

[3] = myo-inositol 0% of 17.6 g, 30 seconds
[4] = myo-inositol 0% of 17.6 g, 60 seconds
[5] = myo-inositol 1% of 17.6 g, 30 seconds
[6] = myo-inositol 1% of 17.6 g, 60 seconds
[7] = myo-inositol 2% of 17.6 g, 30 seconds
[8] = myo-inositol 2% of 17.6 g, 60 seconds
[9] = myo-inositol 4% of 17.6 g, 30 seconds
[10] = myo-inositol 4% of 17.6 g, 60 seconds
[11] = myo-inositol 8% of 17.6 g, 30 seconds
[12] = myo-inositol 8% of 17.6 g, 60 seconds

Row | Dissolved amino acid (g per 16 oz.) [1, 3] [g per 16 oz.] | Dissolved amino acid (g per 16 oz.) [1, 4] [g per 16 oz.] | Dissolved amino acid (g per 16 oz.) [1, 5] [g per 16 oz.] | Dissolved amino acid (g per 16 oz.) [1, 6] [g per 16 oz.] | Dissolved amino acid (g per 16 oz.) [1, 7] [g per 16 oz.] | Dissolved amino acid (g per 16 oz.) [1, 8] [g per 16 oz.] | Dissolved amino acid (g per 16 oz.) [1, 9] [g per 16 oz.] | Dissolved amino acid (g per 16 oz.) [1, 10] [g per 16 oz.] | Dissolved amino acid (g per 16 oz.) [1, 11] [g per 16 oz.] | Dissolved amino acid (g per 16 oz.) [1, 12] [g per 16 oz.] | Dissolved amino acid (g per 16 oz.) ([2]; myo-inositol 0%, 30 seconds) | Dissolved amino acid (g per 16 oz.) ([2]; myo-inositol 0%, 60 seconds) | Dissolved amino acid (g per 16 oz.) ([2]; myo-inositol 0%, 90 seconds) | Dissolved amino acid (g per 16 oz.) ([2]; myo-inositol 0%, 240 seconds) | Dissolved amino acid (g per 16 oz.) ([2]; myo-inositol 0%, 600 seconds) | Dissolved amino acid (g per 16 oz.) ([2]; myo-inositol 1%, 30 seconds) | Dissolved amino acid (g per 16 oz.) ([2]; myo-inositol 1%, 60 seconds) | Dissolved amino acid (g per 16 oz.) ([2]; myo-inositol 1%, 90 seconds) | Dissolved amino acid (g per 16 oz.) ([2]; myo-inositol 1%, 240 seconds) | Dissolved amino acid (g per 16 oz.) ([2]; myo-inositol 1%, 600 seconds) | Compound | other results
1 | 0.237 | 0.495 | 0.504 | 0.908 | 0.337 | 0.714 | 0.416 | 0.791 | 0.546 | 0.972 | 0.978 | 1.36 | 1.50 | 1.71 | 1.74 | 1.09 | 1.39 | 1.51 | 1.71 | 1.71 | CC[C@H](C)[C@H](N)C(=O)O [Isoleucine, L-Isoleucine] | Dissolved amino acid (g per 16 oz.) ([2]; myo-inositol 2%, 30 seconds): 1.07 g per 16 oz.; Dissolved amino acid (g per 16 oz.) ([2]; myo-inositol 2%, 60 seconds): 1.33 g per 16 oz.; Dissolved amino acid (g per 16 oz.) ([2]; myo-inositol 2%, 90 seconds): 1.46 g per 16 oz.; Dissolved amino acid (g per 16 oz.) ([2]; myo-inositol 2%, 240 seconds): 1.66 g per 16 oz.; Dissolved amino acid (g per 16 oz.) ([2]; myo-inositol 2%, 600 seconds): 1.70 g per 16 oz.; Dissolved amino acid (g per 16 oz.) ([2]; myo-inositol 4%, 30 seconds): 1.14 g per 16 oz.; Dissolved amino acid (g per 16 oz.) ([2]; myo-inositol 4%, 60 seconds): 1.39 g per 16 oz.; Dissolved amino acid (g per 16 oz.) ([2]; myo-inositol 4%, 90 seconds): 1.52 g per 16 oz.; Dissolved amino acid (g per 16 oz.) ([2]; myo-inositol 4%, 240 seconds): 1.70 g per 16 oz.; Dissolved amino acid (g per 16 oz.) ([2]; myo-inositol 4%, 600 seconds): 1.72 g per 16 oz.; Dissolved amino acid (g per 16 oz.) ([2]; myo-inositol 8%, 30 seconds): 1.09 g per 16 oz.; Dissolved amino acid (g per 16 oz.) ([2]; myo-inositol 8%, 60 seconds): 1.38 g per 16 oz.; Dissolved amino acid (g per 16 oz.) ([2]; myo-inositol 8%, 90 seconds): 1.48 g per 16 oz.; Dissolved amino acid (g per 16 oz.) ([2]; myo-inositol 8%, 240 seconds): 1.72 g per 16 oz.; Dissolved amino acid (g per 16 oz.) ([2]; myo-inositol 8%, 600 seconds): 1.74 g per 16 oz.
2 | 0.401 | 0.730 | 0.432 | 0.690 | 0.550 | 1.01 | 0.564 | 0.924 | 0.797 | 1.29 | 1.30 | 1.54 | 1.62 | 1.69 | 1.70 | 1.39 | 1.59 | 1.65 | 1.72 | 1.72 | CC(C)[C@H](N)C(=O)O [Valine, L-Valine] | valine/myo-inositol correlation on a molar basis, slope of plot (FIG. 2) ([1]; first material, 30 second time point): one valine molecule dissolves for every two molecules of myo-inositol added; Dissolved amino acid (g per 16 oz.) ([2]; myo-inositol 2%, 30 seconds): 1.38 g per 16 oz.; Dissolved amino acid (g per 16 oz.) ([2]; myo-inositol 2%, 60 seconds): 1.55 g per 16 oz.; Dissolved amino acid (g per 16 oz.) ([2]; myo-inositol 2%, 90 seconds): 1.63 g per 16 oz.; Dissolved amino acid (g per 16 oz.) ([2]; myo-inositol 2%, 240 seconds): 1.70 g per 16 oz.; Dissolved amino acid (g per 16 oz.) ([2]; myo-inositol 2%, 600 seconds): 1.70 g per 16 oz.; Dissolved amino acid (g per 16 oz.) ([2]; myo-inositol 4%, 30 seconds): 1.44 g per 16 oz.; Dissolved amino acid (g per 16 oz.) ([2]; myo-inositol 4%, 60 seconds): 1.57 g per 16 oz.; Dissolved amino acid (g per 16 oz.) ([2]; myo-inositol 4%, 90 seconds): 1.64 g per 16 oz.; Dissolved amino acid (g per 16 oz.) ([2]; myo-inositol 4%, 240 seconds): 1.70 g per 16 oz.; Dissolved amino acid (g per 16 oz.) ([2]; myo-inositol 4%, 600 seconds): 1.70 g per 16 oz.; Dissolved amino acid (g per 16 oz.) ([2]; myo-inositol 8%, 30 seconds): 1.36 g per 16 oz.; Dissolved amino acid (g per 16 oz.) ([2]; myo-inositol 8%, 60 seconds): 1.56 g per 16 oz.; Dissolved amino acid (g per 16 oz.) ([2]; myo-inositol 8%, 90 seconds): 1.62 g per 16 oz.; Dissolved amino acid (g per 16 oz.) ([2]; myo-inositol 8%, 240 seconds): 1.69 g per 16 oz.; Dissolved amino acid (g per 16 oz.) ([2]; myo-inositol 8%, 600 seconds): 1.69 g per 16 oz.
